Measurements as given in patent US20140234373A1, “Methods of Promoting Immune Tolerance” (Georgia Regents University, priority 2011, published 2014).

How the values were obtained:
OT-1 T cells = experiment: DC suppression assay (splenic DCs from treated mice with OT-1 T cells); assay type: in vivo; details: DCs from pDNA/PEI-treated B6 mice, 1MT 100 μM
Experimental: MACS-enriched splenic DCs (CD11c+) and Tregs (CD4+CD25+) were isolated according to manufacturer's instructions, except that cells were incubated with beads at RT (Magnetic Cell Separation Technology (MACS)—Miltenyi Biotec Inc., Auburn, Calif.). T cell stimulatory activity of DCs was assessed by culturing graded numbers of DCs (X-Y) with responder (MACS-enriched) CD8+ T cells from OT-1 (+SIINFEKL peptide) (SEQ ID NO:1) TCR-Tg mice+/−1MT as described (11). Suppressor activity of splenic Tregs was assessed by culturing graded numbers of Tregs with responder A1 (H-Y-specific) T cells, APCs (female CBA) and male (H-Y) peptide; a cocktail of anti-PD-1, anti-PD-L1, and anti-PD-L2 mAbs was added to some cultures to block PD-1-PD-L interactions as described (Baban, et al., J Immunol, 183:2475-2483 (2009), Sharma, et al., J Clin Invest 117:2570-2582 (2007)).
Assays to detect IDO-dependent T cell regulatory phenotypes in splenic DCs were performed as previously described. Briefly, MACS enriched (CD11c^+) spleen cells were cultured for 72 hours with MACS-enriched CD8α^+ T cells from OT-1 TCR transgenic mice and OVA257-264 peptide (SIINFEKL (SEQ ID NO:1)), 100 nM). Proliferation was assessed by adding 1 μCi methyl-[^3H]-thymidine for the final 6 hours and quantified using a BetaPlate counter (Wallac). […] Proliferation was assessed as described above. […]

NODf mice = experiment: Type I diabetes onset in NOD female mice; assay type: in vivo; details: oral 1MT, no other treatment
Source text: IDO slows T1D progression in a subset of NODf mice (FIG. 10 (-▴-)), as IDO inhibitor accelerated disease onset in at least 50% of NOD female mice.

[1] = system: OVA-specific OT-2 T cells; experiment: In vivo suppression assay, OT-2 T cell responses to OVA immunization; details: oral 1MT with pDNA/PEI, OVA-immunized B6 mice
Experimental: CFSE-labeled OVA-specific T cells from OT-1 or OT-2 donor mice were injected (i/v) into recipient B6 mice at least 1 day before immunization. CFSE labeling was performed by incubating MACS-enriched splenic CD8+ (OT-1) or CD4+ (OT-2) T cells at ˜10×10^6 cells/ml in PBS with 2 μM CFSE at 37° C. for 15 mins Cells were washed in PBS and injected into recipients (i/v). Mice were then immunized with […] erythrocyte-free spleen cells from Act-mOVA transgenic mice (s/c), and treated with pDNA/PEI nanoparticles and oral 1MT as indicated in FIG. 3.
Cells were stained with the following antibodies; anti-CD4 (clone RM4-5), anti-Thy1.1 (clone OX-7), anti-NK1.1 (clone PK136), anti-CD49b (clone DX5), anti-IFNγ (clone XMG1.2) from Pharmingen-BD-Biosciences (San Jose, Calif.), and analyzed using a LSR2 flow cytometer (Becton-Dickinson). CFSE was purchased from Invitrogen. For detecting intracellular IFNγ, cells were surface stained with anti-NK1.1 and anti-DX5, fixed with cytofix/cytoperm, washed with Perm/Wash solution (BD Bioscience) and stained with anti-IFNγ. Some cells were incubated in RPMI with 1 μM of brefeldin (BD Bioscience) for 3 hrs. with no further stimulations to accumulate cytokine before staining. For detecting IFNγ in OT-2 T cells, dLN cells were stimulated with PMA/ionomycin for 2 hrs. with brefeldin. […]

[2] = system: B6 mice (mBSA-induced arthritis); experiment: mBSA-induced arthritis model; assay type: in vivo; details: local joint inflammation
Experimental: B6 mice were sensitized with methylated BSA (mBSA, s/c, […] in CFA (day 0). Booster injections of mBSA in IFA were given on days 7 and 14, and arthritis was induced on day 21 by intra-articular injection of mBSA (10 μg in PBS, challenge).
Arthritis severity was evaluated by measuring joint swelling, neutrophil infiltration, and histological analysis as described (Lemos, et al., Proc Natl Acad Sci USA, 106:5954-5959 (2009)). In brief, joint swelling was assessed using a vernier caliper, and was expressed as the increase in diameter (mm) relative to non-inflamed joints in each mouse at experimental starting points. Neutrophils were counted after harvesting cells from articular cavities 24 hours after mBSA challenge. Results were presented as neutrophil numbers per cavity (mean±SEM). Arthritis was analyzed histologically 28 days after initial immunization (experimental endpoints). Knee joints were dissected and fixed in 10% buffered formalin for 3 days. […] Sections were examined by two independent observers and graded blindly using a semi-quantitative score from 0 to 3 (0, no; 1, mild; 2, moderate; 3, severe alterations) for the extent of (a) synovial lining layer hyperplasia and (b) infiltration of leukocytes into synovial membrane/joint space (as measures of joint inflammation); and (c) pannus formation and necrosis/erosion of cartilage (as a measure of joint destruction). […]

Compound: Cn1cc(C[C@@H](N)C(=O)O)c2ccccc21 [1MT, 1-methyl-[D]-tryptophan]
- effect of adding 1MT on T cell responses (OT-1 T cells): restored robust T cell responses
- mice that developed diabetes faster than control (NODf mice): 50%
- mice that developed diabetes faster than control (NODf mice; listed as IDO inhibitor): at least 50%
- effect of IDO inhibitor on suppressive effects of DNP treatment [1]: abrogated
- effect of oral 1MT on ameliorative effects of pAT/PEI therapy [2]: reversed
